Source: patent publication US9422357B2, “Glycosylated polypeptide and drug composition containing said polypeptide” (priority 2011, dated 2016)

Tests used:
[1] = Pharmacokinetics test with rats (intravenous and subcutaneous administration); conditions: rat
Procedure: PBS solution was prepared by dissolving 1 tablet of Phosphate buffered saline (P4417 from Sigma) in 200 mL of ultrapure water.
0.2 mL of the collected blood was promptly mixed with 0.2 mL of the aprotinin-containing EDTA-PBS solution prepared in the above 68-1, and left on ice for 30 minutes or more. […] As blank plasma, plasma obtained by similarly treating the blood collected from untreated rat cervical vein was employed. Plasma samples were frozen in storage until employed for measurement. […] The standard solution for creating a standard curve was prepared as follows. First, the blank plasma obtained in the above 68-2 was diluted with the assay buffer supplied in the EIA kit similarly to the plasma sample, and this was used as the assay buffer for standard solution preparation (for example, when diluting the plasma sample to 100-fold, 1/100 amount of blank plasma was added to the assay buffer supplied in the EIA kit, and this was used as the assay buffer for standard solution preparation). […] Moreover, the predicted initial concentration (C0) was determined by the extrapolation method for intravenous administration, t1/2 and MRT were calculated, and the maximum plasma concentration (Cmax) was determined from the actual value for subcutaneous administration.
Moreover, the parameters obtained were employed to calculate bioavailability from the following mathematical formula. […]

amylase, LDH, CPK = assay: Gastrointestinal obstruction model, blood parameters (amylase, LDH, CPK); conditions: Table 10; rat gastrointestinal obstruction model
Procedure: This experimental line was carried out as a test line to evaluate the promotion of intestinal fluid absorption or the secretory suppressing action, using the change in the intestinal fluid weight in the jejunum after bowel obstruction as an indicator. Moreover, blood parameters of deviation enzymes amylase (pancreas), lactate dehydrogenase (LDH, liver), and creatine phosphokinase (CPK, skeletal muscle, cardiac muscle etc.) were measured as indicators of tissue disorders.
Anesthesia was introduced with inhalation of 2% isoflurane and laughing gas:oxygen=7:3, and this was maintained throughout the surgery. A median incision was made in the abdomen, and the jejunum at about 10 cm from the musculus suspensorius duodeni was ligated with a surgical suture. Then, the incision site was promptly sutured, and the rats were fasted until compound administration. […]
One hour after compound administration, a median incision was made in the abdomen under inhalation anesthesia, and 1.5 mL of blood was collected from the abdominal vena cava. […] The fluid and blood on the jejunum surface were removed with a paper towel, nerves, blood vessels, and fat attached to the jejunum was removed, this was cut into 6 cm lengths, and wet weight was measured. This was then dried at 36 degrees for 24 hours, and dry weight was measured. […]

C[C@H](N)C(=O)NCC(=O)N[C@H]1CSSC[C@@H](C(=O)O)NC(=O)[C@H](CO)NC(=O)[C@H]([C@@H](C)O)NC(=O)[C@H](Cc2ccccc2)NC(=O)[C@H]([C@@H](C)O)NC(=O)[C@H](CCCCN)NC(=O)[C@H](Cc2c[nH]c3ccccc23)NC(=O)[C@H](Cc2ccccc2)NC(=O)[C@H](Cc2ccccc2)NC(=O)[C@H](CC(N)=O)NC(=O)[C@H](CCCCN)NC1=O [SRIF14]
C0, intravenous administration ([1]; Table 5D, no unit at the table (Table 4: nM), extrapolation): 819
C0, intravenous administration ([1]; Tables 5B-5F, no unit printed in these tables (Table 5A footnote: nM)): 819

C[C@@H](O)[C@@H]1NC(=O)[C@H](CCCCN)NC(=O)[C@@H](Cc2c[nH]c3ccccc23)NC(=O)[C@H](Cc2ccccc2)NC(=O)[C@@H](NC(=O)[C@H](N)Cc2ccccc2)CSSC[C@@H](C(=O)N[C@H](CO)[C@@H](C)O)NC1=O [octreotide]
LDH activity compared to the vehicle (amylase, LDH, CPK): low value compared to the vehicle
amylase activity compared to the vehicle (amylase, LDH, CPK): equivalent to the vehicle
